# Experimental data as given in ChEMBL document CHEMBL4814080, “Design, Synthesis, and Biological Evaluation of Novel 1,3-Oxazole Sulfonamides as Tubulin Polymerization Inhibitors” (ACS Med Chem Lett, 2021).
# Experiments:
# Type in all cases: functional
# [1] = test system: Panel NCI-60 (60 carcinoma cell lines); assay: Cytotoxicity against human Panel NCI-60 (60 carcinoma cell lines) assessed as cell growth at 10 uM after 48 hrs by sulforhodamine B assay relative to control; settings: read-out: Activity
# [2] = test system: leukaemia cell line; assay: Cytotoxicity against human leukaemia cell line assessed as cell growth inhibition measured after 48 hrs by sulforhodamine B assay; settings: for CC50: read-out: LC50 (the source's name)
# [3] = test system: TK-10; assay: Cytotoxicity against human TK-10 cells assessed as cell growth at 10 uM after 48 hrs by sulforhodamine B assay relative to control; settings: read-out: Activity
# [4] = test system: SR; assay: Cytotoxicity against human SR cells assessed as cell growth at 10 uM after 48 hrs by sulforhodamine B assay relative to control; settings: read-out: Activity
# [5] = test system: MOLT-4; assay: Cytotoxicity against human MOLT-4 cells assessed as cell growth at 10 uM after 48 hrs by sulforhodamine B assay relative to control; settings: read-out: Activity
# [6] = test system: COLO 205; assay: Cytotoxicity against human COLO 205 cells assessed as cell growth at 10 uM after 48 hrs by sulforhodamine B assay relative to control; settings: read-out: Activity
# [7] = test system: SK-OV-3; assay: Cytotoxicity against human SK-OV-3 cells assessed as cell growth at 10 uM after 48 hrs by sulforhodamine B assay relative to control; settings: read-out: Activity
# [8] = test system: NCI/ADR-RES; assay: Cytotoxicity against human NCI/ADR-RES cells assessed as cell growth at 10 uM after 48 hrs by sulforhodamine B assay relative to control; settings: read-out: Activity
# [9] = test system: Panel NCI-60 (60 carcinoma cell lines); assay: Cytotoxicity against human Panel NCI-60 (60 carcinoma cell lines) assessed as cell growth inhibition measured after 48 hrs by sulforhodamine B assay
SMILES,growth at 10 µM [1] [%],GI50 [2] [µM],TGI [2] [µM],CC50 [2] [µM],further results
O=S(=O)(Nc1ccc(C(F)(F)F)cc1)c1ccc(-c2cnc(C3CC3)o2)cc1,94.5,–,–,–,–
Cc1cc(Cl)cc(NS(=O)(=O)c2ccc(-c3cnc(C4CC4)o3)cc2)c1,31.6,0.175,7.04,84.9,–
O=S(=O)(Nc1ccc(Cl)cc1)c1ccc(-c2cnc(C3CC3)o2)cc1,24.3,–,–,–,growth at 10 µM [3]: 54.2%; growth at 10 µM [4]: 9.9%; growth at 10 µM [5]: 14.2%; growth at 10 µM [6]: 9%; growth at 10 µM [7]: 30.2%; growth at 10 µM [8]: 4.4%; GI50 [9]: 1.43 µM; LC50 (concentration causing 50% net cell kill) [9]: 57.4 µM
CN(c1ccc(Cl)cc1)S(=O)(=O)c1ccc(-c2cnc(C3CC3)o2)cc1,30.6,–,–,–,–
O=S(=O)(Nc1ccc(I)cc1)c1ccc(-c2cnc(C3CC3)o2)cc1,57.3,–,–,–,–
O=S(=O)(Nc1ccc(C2CC2)cc1)c1ccc(-c2cnc(C3CC3)o2)cc1,63.4,–,–,–,–
COc1ccc(NS(=O)(=O)c2ccc(-c3cnc(C4CC4)o3)cc2)cc1Cl,32.6,–,–,–,–
O=S(=O)(NCC(F)F)c1ccc(-c2cnc(C3CC3)o2)cc1,92.2,–,–,–,growth at 10 µM [3]: 104%; growth at 10 µM [4]: 89.3%; growth at 10 µM [5]: 82.5%; growth at 10 µM [6]: 94.5%; growth at 10 µM [7]: 101%; growth at 10 µM [8]: 92.3%
O=S(=O)(Nc1ccccc1Cl)c1ccc(-c2cnc(C3CC3)o2)cc1,27.4,0.429,49.7,> 100,–
O=S(=O)(Nc1ccc(F)c(Cl)c1)c1ccc(-c2cnc(C3CC3)o2)cc1,23,0.26,73.7,> 100,–
O=S(=O)(Nc1ccc(Cl)cc1Cl)c1ccc(-c2cnc(C3CC3)o2)cc1,25,0.481,74.5,> 100,–
O=S(=O)(Nc1ccc2c(c1)OC(F)(F)O2)c1ccc(-c2cnc(C3CC3)o2)cc1,41.7,–,–,–,–
Cc1ccc(NS(=O)(=O)c2ccc(-c3cnc(C4CC4)o3)cc2)cc1C,22.8,0.42,> 100,> 100,–
O=S(=O)(c1ccc(-c2cnc(C3CC3)o2)cc1)N1CCOCC1,94.2,–,–,–,growth at 10 µM [3]: 101%; growth at 10 µM [4]: 91.3%; growth at 10 µM [5]: 95.3%; growth at 10 µM [6]: 95%; growth at 10 µM [7]: 112%; growth at 10 µM [8]: 93.5%
O=S(=O)(Nc1ccc(Cl)c(F)c1)c1ccc(-c2cnc(C3CC3)o2)cc1,23.8,0.38,63,> 100,–
Cc1cc(Cl)ccc1NS(=O)(=O)c1ccc(-c2cnc(C3CC3)o2)cc1,24,0.277,54.7,> 100,–
O=S(=O)(Nc1ccc(OC(F)F)cc1)c1ccc(-c2cnc(C3CC3)o2)cc1,63.1,–,–,–,–
O=S(=O)(Nc1ccc2ccccc2c1)c1ccc(-c2cnc(C3CC3)o2)cc1,28.9,–,–,–,growth at 10 µM [3]: 61.9%; growth at 10 µM [4]: 16.5%; growth at 10 µM [5]: 20.2%; growth at 10 µM [6]: 1.5%; growth at 10 µM [7]: 32.7%; growth at 10 µM [8]: 9.7%; GI50 [9]: 1.84 µM; LC50 (concentration causing 50% net cell kill) [9]: 78.6 µM
O=S(=O)(Nc1ccc(I)c(Cl)c1)c1ccc(-c2cnc(C3CC3)o2)cc1,29.8,1.01,19.6,> 100,–
O=C1COCCN1c1ccc(NS(=O)(=O)c2ccc(-c3cnc(C4CC4)o3)cc2)cc1,96.7,–,–,–,–
Cc1cc(F)cc(NS(=O)(=O)c2ccc(-c3cnc(C4CC4)o3)cc2)c1,28.1,0.138,7.25,78,–
O=S(=O)(Nc1ccc(N2CCOCC2)c(F)c1)c1ccc(-c2cnc(C3CC3)o2)cc1,92.2,–,–,–,–
O=S(=O)(Nc1cccc(Cl)c1)c1ccc(-c2cnc(C3CC3)o2)cc1,24.2,0.477,54.2,> 100,–

SMILES,growth at 10 µM [1] [%],GI50 [2] [µM],TGI [2] [µM],CC50 [2] [µM],further results
Cc1ccc(Cl)c(NS(=O)(=O)c2ccc(-c3cnc(C4CC4)o3)cc2)c1,25.3,0.0488,52.8,> 100,–
COc1ccc(NS(=O)(=O)c2ccc(-c3cnc(C4CC4)o3)cc2)cc1,56.1,–,–,–,–
COc1cc(NS(=O)(=O)c2ccc(-c3cnc(C4CC4)o3)cc2)ccc1F,25.9,0.328,75.7,> 100,–
O=S(=O)(Nc1ccc(F)cc1F)c1ccc(-c2cnc(C3CC3)o2)cc1,29.1,0.356,66,> 100,–
O=S(=O)(Nc1cc(F)cc(F)c1)c1ccc(-c2cnc(C3CC3)o2)cc1,35.4,2.14,80,> 100,–
O=S(=O)(Nc1ccc(I)cc1Cl)c1ccc(-c2cnc(C3CC3)o2)cc1,39.5,–,–,–,–
O=S(=O)(Nc1ccc2c(c1)OCO2)c1ccc(-c2cnc(C3CC3)o2)cc1,35.8,–,–,–,–
Cc1ccc(NS(=O)(=O)c2ccc(-c3cnc(C4CC4)o3)cc2)cc1,33.1,–,–,–,–
CS(=O)(=O)CCNS(=O)(=O)c1ccc(-c2cnc(C3CC3)o2)cc1,94.1,–,–,–,growth at 10 µM [3]: 99.1%; growth at 10 µM [4]: 80.3%; growth at 10 µM [5]: 94.1%; growth at 10 µM [6]: 94.4%; growth at 10 µM [7]: 105%; growth at 10 µM [8]: 94.1%
O=S(=O)(Nc1ccc(C(F)(F)F)c(Cl)c1)c1ccc(-c2cnc(C3CC3)o2)cc1,77.1,–,–,–,–
Cc1ccc(NS(=O)(=O)c2ccc(-c3cnc(C4CC4)o3)cc2)cc1C(F)(F)F,60.5,–,–,–,–
O=S(=O)(Nc1ccc(I)cc1F)c1ccc(-c2cnc(C3CC3)o2)cc1,49.8,–,–,–,–
CN(c1ccc(Br)cc1)S(=O)(=O)c1ccc(-c2cnc(C3CC3)o2)cc1,31.4,–,–,–,GI50 [9]: 3.92 µM
O=S(=O)(Nc1cc(Cl)cc(Cl)c1)c1ccc(-c2cnc(C3CC3)o2)cc1,36.9,–,–,–,–
O=S(=O)(Nc1cccc2ccccc12)c1ccc(-c2cnc(C3CC3)o2)cc1,28.6,0.0447,22.5,> 100,–
O=S(=O)(Nc1cc(F)cc(Cl)c1)c1ccc(-c2cnc(C3CC3)o2)cc1,30.3,1.44,77.5,> 100,–
O=S(=O)(Nc1ccc(F)cc1)c1ccc(-c2cnc(C3CC3)o2)cc1,28.1,–,–,–,growth at 10 µM [3]: 32.5%; growth at 10 µM [4]: 11.6%; growth at 10 µM [5]: 12.7%; growth at 10 µM [6]: 20.2%; growth at 10 µM [7]: 39.7%; growth at 10 µM [8]: -0.9%
N#Cc1ccc(NS(=O)(=O)c2ccc(-c3cnc(C4CC4)o3)cc2)cc1,95.7,–,–,–,–
CC(=O)c1ccc(NS(=O)(=O)c2ccc(-c3cnc(C4CC4)o3)cc2)cc1,93.5,–,–,–,–
O=S(=O)(Nc1cc(Cl)ccc1Cl)c1ccc(-c2cnc(C3CC3)o2)cc1,34.6,1.02,> 100,> 100,–
CN(c1ccc(F)cc1)S(=O)(=O)c1ccc(-c2cnc(C3CC3)o2)cc1,31.8,–,–,–,GI50 [9]: 1.18 µM
Cc1cc(NS(=O)(=O)c2ccc(-c3cnc(C4CC4)o3)cc2)ccc1I,35.9,–,–,–,–
O=S(=O)(Nc1cc(Cl)c(F)c(Cl)c1)c1ccc(-c2cnc(C3CC3)o2)cc1,37.1,–,–,–,–
